Measured values reported in patent US10639276B2, “Liposomes with ginsenoside as membrane material and preparations and use thereof” (SHANGHAI GINPOSOME PHARMATECH CO., LTD., priority 2015, dated 2020).

How the values were obtained:
Assay in all cases: Cell survival rate, cell experiment in vitro (MTT)
[1] = system: paclitaxel-resistant human ovarian cancer cell line (A2780/T)
Description: (§1) Assay of cell experiment in vitro: tumor cells at logarithmic growth phase were collected, resuspended in a DMEM complete culture-medium (containing 10% fetal bovine serum, 100 U/ml penicillin, 100 μg/ml streptomycin) and a final concentration was 4×10^4 cells/ml. In a 96-well cell culture plate, 200 μl above cell suspension was added into each well (8×10^3 cells/well), and cultured for 48 h in a cell incubator at 37° C. filled with 5% CO2. The DMEM complete culture-medium was respectively replaced with 200 μL antitumor drug with different concentrations. The final concentrations of the drugs were set no less than six groups. The DMEM complete culture-medium was as the negative control group. Each concentration was set 4 wells and the experiment was repeated for 3 times. 20 μl 5 mg/mL MTT solution was added into each well after the cells were cultured for 72 h in a cell incubator at 37° C. filled with 5% CO2. The supernatant was discarded after it was further cultured for 4 h in a cell incubator. 150 μl DMSO was added into each well, shaked for 10 min. An OD was determined at 490 nm by a continuous spectrum multifunctional microplate reader (Tecan infinite M 200 TECAN, Switzerland). The cell survival rate was calculated by the following formula: (the cell survival rate (%)=ODdrug/ODcontrol×100%). Cell survival rate (%)=OD490(sample)/OD490(control)×100%;
(§2) Wherein OD490(sample) is the OD of the experimental group, OD490(control) is the OD of the blank control group.

[2] = system: human ovarian cancer cell line (A2780)
Description: as §1, §2

[3] = system: paclitaxel-resistant human pancreatic cancer cell line (BxPC-3/T); assay type: cell-based
Description: The new recovery BxPC-3 cells were cultured for two generations or three generations under conventional conditions to make the cells grow stably.

CC(=O)O[C@H]1C(=O)[C@@]2(C)[C@H]([C@H](OC(=O)c3ccccc3)[C@]3(O)C[C@H](OC(=O)[C@H](O)[C@@H](NC(=O)c4ccccc4)c4ccccc4)C(C)=C1C3(C)C)[C@]1(OC(C)=O)CO[C@@H]1C[C@@H]2O [Taxol, paclitaxel]
Cell Viability ([1]; C (μM): Taxol + Rg5 1.5625 + 9.375, Taxol 1.5625, Blank Rg5 9.375, Abraxane 1.5625): 0.856
Cell Viability ([1]; C (μM): Taxol + Rg5 6.25 + 37.5, Taxol 6.25, Blank Rg5 37.5, Abraxane 6.25): 0.654
Cell Viability ([1]; C (μM): Taxol + Rg5 12.5 + 75, Taxol 12.5, Blank Rg5 75, Abraxane 12.5): 0.393
Cell Viability ([1]; C (μM): Taxol + Rg5 400 + 2400, Taxol 400, Blank Rg5 2400, Abraxane 400): 0.139
Cell Viability ([2]; C (μM): Taxol + Rg5 0.001953 + 0.011719, Taxol 0.001953, Blank Rg5 0.011719, Abraxane 0.001953): 0.866
Cell Viability ([2]; C (μM): Taxol + Rg5 0.007813 + 0.046875, Taxol 0.007813, Blank Rg5 0.046875, Abraxane 0.007813): 0.818
Cell Viability ([2]; C (μM): Taxol + Rg5 0.015625 + 0.09375, Taxol 0.015625, Blank Rg5 0.09375, Abraxane 0.015625): 0.673
Cell Viability ([2]; C (μM): Taxol + Rg5 0.03125 + 0.1875, Taxol 0.03125, Blank Rg5 0.1875, Abraxane 0.03125): 0.443
Cell Viability ([2]; C (μM): Taxol + Rg5 0.25 + 1.5, Taxol 0.25, Blank Rg5 1.5, Abraxane 0.25): 0.204
Cell Viability ([2]; C (μM): Taxol + Rg5 0.5 + 3, Taxol 0.5, Blank Rg5 3, Abraxane 0.5): 0.185
Cell Viability ([2]; C (μM): Taxol + Rg5 1 + 6, Taxol 1, Blank Rg5 6, Abraxane 1): 0.133
Cell Viability ([3]; C (μM): Taxol + Rg5 1.5625 + 9.375, Taxol 1.5625, Blank Rg5 9.375): 0.85
Cell Viability ([3]; C (μM): Taxol + Rg5 12.5 + 75, Taxol 12.5, Blank Rg5 75): 0.639
Cell Viability ([3]; C (μM): Taxol + Rg5 25 + 150, Taxol 25, Blank Rg5 150): 0.454
Cell Viability ([3]; C (μM): Taxol + Rg5 50 + 300, Taxol 50, Blank Rg5 300): 0.272
Cell Viability ([3]; C (μM): Taxol + Rg5 200 + 1200, Taxol 200, Blank Rg5 1200): 0.15
Cell Viability ([3]; C (μM): Taxol + Rg5 400 + 2400, Taxol 400, Blank Rg5 2400): 0.134
